Measurements: article PMC8541546, “Identification of HLA-A2-Restricted Mutant Epitopes from Neoantigens of Esophageal Squamous Cell Carcinoma” (Vaccines, 2021)

Tests used:
HLA-A*0201 molecule = target: T1, HLA-A*0201 molecule (Homo sapiens, UniProt P04439, D140Y/D185E/D98H/E176V/E277Q/G131W/G231S/I119V/I121R/I166T/I218V/L300P/L318F/N151K/N90K/P208A/P217A/Q86G/Q94H/R138H/R169H/T345S); assay: T2A2 cell-binding assay; details: T2A2 cells; FI = (MFI of peptide - MFI of control without peptide)/MFI of control without peptide; anti-HLA-A2 BB7.2, flow cytometry; FI > 1 = high binding affinity
T1 construct: T2A2 cells (TAP-deficient HLA-A2 molecules overexpressing, cultured in IMDM medium); host or cells: T2A2 cells
Experimental: The binding affinity of neoepitope to the MHC molecule and the stable neoepitope/MHC complex are critical for inducing T cell immune response, so we first performed a T2A2 cell-binding assay and stabilization assay. The T2A2 cell-binding assay was measured as in our previous study. The binding affinity was computed as follows: fluorescence index (FI) = (mean fluorescence intensity (MFI) of peptide group-MFI of the dissolved buffer without peptide group)/MFI of the dissolved buffer without peptide group.

KYSE140-MUT cells [1] = assay: Intracellular staining (granzyme B) of CTLs from immunized Tg mice; assay type: in vivo, HLA-A2.1/K^b Tg mice; details: 100 μg/mouse s.c. with CpG ODN 1826 once a week for three weeks; spleen lymphocytes re-stimulated with MUT peptide; KYSE140-MUT target cells; n = 5 per group
Experimental: (§1) To investigate whether neoepitopes could induce a peptide-specific T cell response in vivo, HLA-A2.1/K^b Tg mice were used and immunized according to the procedure de-scribed previously. In brief, mutant peptides or WH-mutant peptides (100 μg per mouse) with CpG-ODN 1826 (30 μg per mouse) were injected s.c. in the back of HLA-A2.1/K^b Tg mice (five mice per group, randomly grouped) once a week for three weeks. The normal saline (NS) group was immunized s.c. only with CpG ODN 1826 (30 μg/mouse) once a week for three weeks. Five days after the last injection, spleen lymphocytes were isolated and cultured at the concentration of 5 × 10^6 cells/mL in RPMI 1640 medium. These cells were induced by the same mutant peptides (10 μg/mL) that were used for in vivo stimulation and mIL-2 (30 U/mL) for a week. Intracellular cytokine staining assay (ICS) and cytotoxic assay (E: T ratios = 20:1, 40:1, 80:1) were performed after a week induced in vitro [22].
To test the MUT peptides stimulation of CTL response in vivo, peptide-specific T cells induced from Tg mice were co-cultured with tumor cell lines transfected with WT or MUT minigenes, as described in the in vitro assay. These T cells were marked by surface marker antibodies anti-mouse CD3 and CD8α before fixation and permeabilization. Intracellular cytokines were marked by anti-mouse IFN-γ or anti-mouse granzyme B, respectively, and analyzed by flow cytometry (BD FACSCelesta™, USA).

[2] = test system: peptide-pulsed T2A2 cells; assay: Cytotoxicity assay of peptide-induced T cells from donor PBMCs; assay type: cell-based, human; details: donors B–F; E/T 12.5:1, 25:1, 50:1; T2A2 loaded with 50 μg/mL peptide
Experimental: DCs involve and play an important role in initiating CD8^+ T cell response. Consequently, ten HLA-A2^+ healthy donors’ PBMCs were isolated, autologous DCs were generated, and CTLs were induced according to the procedure described previously. In brief, PBMCs were seeded at a density of 5 × 10^6 cells/well in a 6-well plate, and after 3 h, the non-adherent cells were removed and cryopreserved for future incubation with mature autologous DCs. Differentiation of the adherent cells into dendritic cells was induced by GM-CSF (100 ng/mL, #300-03, PeproTech, Rocky Hill, NJ, USA) and IL-4 (100 ng/mL; #200-04, PeproTech, USA), with replenishment every 2 days. On day 5, maturation of DCs was induced using 100 ng/mL LPS (#L4516, Sigma-Aldrich, St. Louis, MO, USA), and maturation was checked on day 8 by flow cytometry (BD FACSCelesta™) using markers for anti-human HLA-DR, anti-human CD80, and anti-human CD86. Then, mature DCs (1 × 10^5) were pulsed with each 10 μg /mL individual peptide or no peptides (control) for 2 h at 37 °C. Next, peptide-pulsed DCs were used to prime the previously cryopreserved autologous peripheral blood lymphocytes (PBLs) at a DC/PBL ratio of 1:10 using complete RPMI-1640 media supplemented with 100 IU/mL rhIL-2 (#200-02, PeproTech, USA) and 10 ng/mL rhIL-7 (#200-07, PeproTech, USA). Half of the feeding medium was replenished every 2 days. After 7 days, PBLs were restimulated with freshly pulsed autologous DCs every 7 days.
(§2) The cytotoxicity of peptide-specific T cells stimulated by mutant peptides was tested by using Cell Trace Far Red (Thermo Scientific, USA). Transfected cells were suspended in PBS (1 × 10^6 cells/mL) and labelled with Cell Trace Far Red as follows: Control target cells and test target cells were marked by 50 μM and 1 mM Cell Trace Far Red, respectively, at 37 °C for 20 min, protected from light. After incubation, target cells were washed with complete media at 37 °C for 5 min. […] Subsequently, test target cells were mixed with control target cells in a tube, washed once, and analyzed by flow cytometry. Specific lysis (%) = (numbers of control target cells—numbers of test target cells)/numbers of control target cells × 100% [28, 29], where, for tumor cells, the control target cells refer to KYSE140-WT cells marked with 50 μM Cell Trace Far Red, and the test target cell refers to KYSE140-WT or KYSE140-MUT cells marked with 1 mM Cell Trace Far Red, respectively (peptide-specific T cells generated from donors G–K’s PBMCs in vitro or generated from spleen lymphocytes of HLA-A2.1/K^b Tg mice in vivo). Additionally, for T2A2 target cells, T2A2 cells unpulsed and marked with 50 μM Cell Trace Far Red were used as the control target cells, while T2A2 cells loaded with MUT peptides or the corresponding WT peptides (50 μg/mL) or T2A2 cells only were marked with 1 mM Cell Trace Far Red and were used as test target cells (peptide-specific T cells stimulated from donors B–F’s PBMCs).

KYSE140-MUT cells [3] = assay: Cytotoxicity assay (Cell Trace Far Red) of CTLs from immunized Tg mice; assay type: in vivo, HLA-A2.1/K^b Tg mice; details: KYSE140-MUT group, E/T of 80:1, 4 h
Experimental: as §1
as §2, with “Additionally, for T2A2 target cells, T2A2 cells unpulsed and marked with 50 μM Cell Trace Far Red were used as the control target cells, while T2A2 cells loaded with MUT peptides or the corresponding WT peptides (50 μg/mL) or T2A2 cells only were marked with 1 mM Cell Trace Far Red and were used as test target cells (peptide-specific T cells stimulated from donors B–F’s PBMCs).” left out

| FI (fluorescence index) (HLA-A*0201 molecule) | Sequence | granzyme B expression of CTLs (KYSE140-MUT cells [1]) [%] | lysis cytotoxicity of MUT peptide-induced T cells on T2A2 cells [2] | lysis rate (specific lysis) (KYSE140-MUT cells [3]) [%] |
| --- | --- | --- | --- | --- |
| 1.67 | ILWRQDINL [NFE2L2-D13N] | 2.3 | could efficiently lyse corresponding MUT peptide-pulsing T2A2 cells | 69.5 |
| 1.81 | LLGPNSFEV [TP53-R267P] | 0.7 | could efficiently lyse corresponding MUT peptide-pulsing T2A2 cells | 71.5 |
| 1.85 | QVTDFLAPL [PCLO-E4090Q] | 1.5 | could efficiently lyse corresponding MUT peptide-pulsing T2A2 cells | 76.7 |
